Measured values: patent US11118204B2, “Switchable ionic liquids for biomass pretreatment and enzymatic hydrolysis” (National Technology & Engineering Solutions of Sandia, LLC, priority 2014, dated 2021)
Values joined by “and” are separate entries in the source; they are usually repeats but may differ in a detail not shown here. Equal values may be shown once.

Experiments:
[1] = ionic liquid solution
[2] = Switchgrass pretreatment in ionic liquid and enzymatic hydrolysis (sugar conversion); conditions: for pretreatment efficiency on dilution of the ionic liquid: 120° C., 3 hrs, FIG. 2B; for biomass pretreatment effectiveness (sugar conversion): pretreatment in neat ionic liquid at 90 or 120° C., hydrolysis in 50 mM sodium succinate pH 5.2, FIG. 2A
Description: Putnam Switchgrass (20 mesh—2 mm particle size) was used as the biomass for all experiments. Samples used to determine the pretreatment and dilution efficiency were washed free of ionic liquid with de-ionized water, and re-suspended in 50 mM sodium succinate buffer at pH 5.2. All enzyme hydrolysis reactions were performed with shaking at 50° C. and 20 mg/g 9:1 Ctec2:Htec, unless otherwise specified. Small-scale, one-pot reactions were performed in 2 ml screw-cap vials in heating blocks without mixing with 100 mg biomass at the specified ionic liquid concentration and biomass loading. Reactions were then acidified with 1 eq. of the free acid in the same vial and transferred to shaker incubators for the enzymatic hydrolysis. Larger scale one-pot reactions were performed in glass pressure tubes (Ace Glass, USA) with 2 g or 4 g biomass (Table 1). Liberated glucose and xylose were quantified with an Agilent HPLC using a Bio-Rad Aminex […] column with a 4 mM sulfuric acid mobile phase.
Data for pretreatment at 90° C. and 120° C. is shown using white bars and black bars, respectively. […] (white bars), and dilution of the ionic liquid to 25% with water.
For the data in FIG. 2C, samples were pretreated at 90° C. or 120° C., with various % IL in the liquid fraction and different wt % biomass loadings. All samples were then hydrolyzed at 25% IL concentration with 9:1 Ctec2:Htec at 20 mg/g biomass. White bars, 90° C., 16 hrs; gray bars, 120° C., 3 hrs; black bars, 120° C., 16 hrs.
In FIG. 3A and FIG. 3B, the circles represent data obtained using 10 wt % ionic liquid and the squares represent data obtained using 25 wt % ionic liquid.

[3] = corn stover, 25 wt % ionic liquid
[4] = tested on: Ctec2; test: Ctec2 stability in ionic liquids (residual activity, T50^30); assay type: biochemical; conditions: for T50^30 (temperature at which enzyme activity is reduced by 50% following 30-minute pre-incubation): Ctec2 pre-incubated 38-80° C. in IL at 5-20%, substrates CMC, PNP-cellobiose, PNP-glucopyranoside, FIG. 1
Description: Enzyme stability was monitored by residual activity measurements. Ctec2 was diluted 200-fold into nine ionic liquid or buffer solutions at concentrations from 1-20 wt %. Each enzyme solution was then divided into 18 wells in a thin-walled PCR plate and incubated in thermal […] (Applied Biosystems, Veriti) at temperatures from 38-80° C. for 30 minutes. […] CMC reaction end-points were analyzed by DNS assay to detect reducing sugars. The end-points of the paranitrophenol reactions were measured by absorbance at 405 nm. […] Error was estimated by replication of both the incubation and activity measurement steps. Some solution conditions produced clearly bi-modal inactivation curves; in these cases the larger of the two transitions was reported. […] To capture the stability differences for several different enzyme classes in the multicomponent commercial enzyme mixture, the T50^30 was measured on three different representative substrates: carboxymethylcellulose (CMC), 4-Nitrophenyl β-D-glucopyranoside (PNP-glucopyranoside) and 4-Nitrophenyl β-D-cellobiose (PNP-cellobiose). […] In FIG. 1, data for acetate-based ionic liquids are shown in the left-hand panels: [Em][Ac] (open circle, solid line); [Ch][Ac] (closed circle, solid line); [Na][Ac], pH 5.2 at 25° C. (closed circle, dashed line). Data for glutamic acid-based ionic liquids are shown in the center panels: […] [Ch]2[Glu] (closed triangle, solid line); […] (open circle, dashed line). Data for succinic acid-based ionic liquids are shown in the right-hand panels: […] [Na][Sc], pH 5.2 at 25° C. (closed square, dashed line); […]

[5] = [Em][Ac] (20%) acidified with acetic acid to pH ~5

Molecule: C[N+](C)(C)CCO.C[N+](C)(C)CCO.N[C@@H](CCC(=O)[O-])C(=O)[O-] [[Ch]2[Glu], (choline)2 glutamate]
- solution pH [1]: 10-11
- performance (glucose yield) relative to the neat ionic liquid ([2]; 25% solution, pretreatment 120° C., 16 hours, one-pot): ~90%
- pretreatment efficiency on dilution of the ionic liquid [2]: consistently high pretreatment efficiency
- biomass pretreatment effectiveness (sugar conversion) [2]: marked improvement
- glucose yield [3]: ~95%
- T50^30 (temperature at which enzyme activity is reduced by 50% following 30-minute pre-incubation) [4]: lowest
- CTec2 activity ([4]; at the lowest ionic liquid concentrations): very low

Molecule: C[N+](C)(C)CCO.C[N+](C)(C)CCO.O=C([O-])CCC(=O)[O-] [[Ch]2[Sc], (choline)2 succinate]
- solution pH [1]: ~7
- pretreatment efficiency on dilution of the ionic liquid [2]: monotonic decrease in efficiency
- sugar release relative to [Ch][Glu] ([2]; pretreatment at 120° C.): twice as much sugar
- biomass pretreatment effectiveness (sugar conversion) [2]: marked improvement

Molecule: C[N+](C)(C)CCO.C[N+](C)(C)CCO.O=C([O-])C(=O)[O-] [[Ch]2[oxalic acid], reference compound]
- Glucose conversion ([2]; ionic liquid used neat): 48%
- glucose conversion above hot water pretreatment ([2]; ionic liquid used neat): ~15%

Molecule: CC(=O)[O-].CCn1cc[n+](C)c1 [[Em][Ac], 1-ethyl-3-methylimidazolium acetate]
- stability of the commercial enzyme mixture on CMC [4, 5]: slightly
- stability of the commercial enzyme mixture on the para-nitrophenol substrates [4, 5]: decreased significantly

Molecule: Choline lysinate [[Ch][Lys], reference compound]
- solution pH [1]: ~14 and ~12
- T50^30 (temperature at which enzyme activity is reduced by 50% following 30-minute pre-incubation) [4]: similarly low

Molecule: Choline succinate [[Ch][Sc]]
- biomass pretreatment effectiveness (sugar conversion) [2]: poorly

Molecule: choline glutamate [[Ch][Glu]]
- Glucose conversion ([2]; 10 wt % IL, 10% switchgrass, pretreatment at 120° C. with [Ch]2[Glu], one-pot hydrolysis with CTec2): 91%
- Glucose conversion ([2]; 25 wt % IL, 10% switchgrass, pretreatment at 120° C. with [Ch]2[Glu], one-pot hydrolysis with CTec2): 82%
- biomass pretreatment effectiveness (sugar conversion) [2]: poorly
